Columns and labels:
velvetleaf [1] = assay: Test B pre-/postemergence herbicide test; format: in vivo, Abutilon theophrasti
In short: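 Flooded paddy rice and barnyardgrass were treated at the 2-leaf stage; upland plantings received compound either on sown seed or on 1- to 4-leaf seedlings. All were kept 13–15 days in a greenhouse and scored visually, 0–100, relative to untreated plants.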

Surinam grass = assay: Test C pre-/postemergence herbicide test; format: in vivo, Urochloa decumbens
In short: (§1)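 Emerged plants at the 1- to 4-leaf stage (2–18 cm), or freshly planted seeds, received test chemicals in a non-phytotoxic solvent mixture with surfactant. Response was visually scored against controls after 12 to 14 days in the greenhouse, on a 0 (no effect) to 100 (complete control) scale.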

corn = assay: Test C pre-/postemergence herbicide test; format: in vivo, Zea mays
In short: as §1

kochia = assay: Test C pre-/postemergence herbicide test; format: in vivo, Kochia scoparia
In short: as §1

morningglory = assay: Test C pre-/postemergence herbicide test; format: in vivo, Ipomoea coccinea; parameters: key to Plant response rating, Morningglory: 0 = no effect, 100 = complete control
In short: as §1

velvetleaf [2] = assay: Test C pre-/postemergence herbicide test; format: in vivo, Abutilon theophrasti
In short: as §1

[3] = test system: smallflower umbrella sedge; assay: Test C flooded paddy test; format: in vivo, Cyperus difformis; settings: for Plant response rating, Sedge, Umbrella: 500 g ai/ha, visual rating after 12 to 14 days
[4] = 125 g ai/ha, 0 is no effect, 100 is complete control, preemergence
[5] = 125 g ai/ha, visual rating, scale 0 (no effect) to 100 (complete control), postemergence
[6] = Postemergence, 500 g ai/ha, scale 0 (no effect) to 100 (complete control)
[7] = 62 g ai/ha, preemergence, scale 0 to 100
[8] = 250 g ai/ha, scale 0-100, preemergence
[9] = 500 g ai/ha, scale 0 to 100 (0 no effect, 100 complete control), visual, 12 to 14 days, preemergence
[10] = 125 g ai/ha, scale 0 to 100 (0 no effect, 100 complete control)
[11] = 250 g ai/ha, scale of 0 to 100, 0 is no effect, 100 is complete control
[12] = scale 0 to 100 (0 no effect, 100 complete control)
[13] = 125 g ai/ha, scale 0 (no effect) to 100 (complete control), visual, 12 to 14 days, preemergence
[14] = 250 g ai/ha, scale 0 to 100 (0 no effect, 100 complete control), visual, 12 to 14 days, preemergence
[15] = Postemergence, 250 g ai/ha, scale 0 to 100, 0 no effect, 100 complete control
[16] = Preemergence, 500 g ai/ha, scale 0 to 100, 0 no effect, 100 complete control
[17] = postemergence, 62 g ai/ha, scale 0 to 100
[18] = Postemergence, 500 g ai/ha, scale 0 to 100
[19] = Postemergence, 125 g ai/ha, scale 0 to 100, 0 no effect, 100 complete control
[20] = postemergence, 125 g ai/ha, scale 0 to 100

CCc1nn(C(C)(C)C)nc1C(=S)Nc1cccc(C(=S)N(C)C)c1 [Compound 396]
Plant response rating (0 to 100 scale), Velvetleaf (velvetleaf [1]; [4]): 80
Velvetleaf plant response rating (velvetleaf [1]; [5]): 20
Velvetleaf plant response rating (velvetleaf [1]; [6]): 50
Plant response rating, Surinam Grass (Surinam grass; [7]): 65
Plant response rating (0 = no effect, 100 = complete control), Surinam Grass (Surinam grass; 125 g ai/ha, preemergence): 95
Plant response rating, Surinam Grass (Surinam grass; [8]): 100
Plant response rating, Surinam Grass (Surinam grass; [9]): 100
Plant response rating, Corn (corn; [7]): 0
Plant response rating (0 = no effect, 100 = complete control), Corn (corn; 125 g ai/ha, preemergence): 30
Plant response rating, Corn (corn; [8]): 60
Plant response rating, Corn (corn; [9]): 80
Plant response rating, Kochia (kochia; [7]): 0
Plant response rating (0 = no effect, 100 = complete control), Kochia (kochia; 125 g ai/ha, preemergence): 45
Plant response rating, Kochia (kochia; [8]): 100
Plant response rating, Kochia (kochia; [9]): 100
Plant response rating, Morningglory (morningglory; [7]): 0
Plant response rating (0 = no effect, 100 = complete control), Morningglory (morningglory; 125 g ai/ha, preemergence): 0
Plant response rating, Morningglory (morningglory; [8]): 25
Plant response rating, Morningglory (morningglory; [9]): 70
Plant response rating, Velvetleaf (velvetleaf [2]; [7]): 0
Plant response rating (0 = no effect, 100 = complete control), Velvetleaf (velvetleaf [2]; 125 g ai/ha, preemergence): 45
Plant response rating, Velvetleaf (velvetleaf [2]; [8]): 100
Plant response rating, Velvetleaf (velvetleaf [2]; [9]): 100
Sedge, Umbrella plant response rating ([3]; 62 g ai/ha, scale 0 to 100): 70
Sedge, Umbrella plant response rating [3, 10]: 75
Sedge, Umbrella plant response rating [3, 11]: 85
Plant response rating, Sedge, Umbrella [3, 12]: 90

CCc1nn(C(C)(C)C)nc1C(=O)Nc1cccc(C(=S)N(C)C)c1 [Compound 395]
Plant response rating (0 to 100 scale), Velvetleaf (velvetleaf [1]; [4]): 80
Velvetleaf plant response rating (velvetleaf [1]; [5]): 30
Velvetleaf plant response rating (velvetleaf [1]; [6]): 60
Plant response rating, Surinam Grass (Surinam grass; [7]): 95
Plant response rating (0 = no effect, 100 = complete control), Surinam Grass (Surinam grass; 125 g ai/ha, preemergence): 100
Plant response rating, Surinam Grass (Surinam grass; [8]): 100
Plant response rating, Surinam Grass (Surinam grass; [9]): 100
Plant response rating, Corn (corn; [7]): 0
Plant response rating (0 = no effect, 100 = complete control), Corn (corn; 125 g ai/ha, preemergence): 45
Plant response rating, Corn (corn; [8]): 85
Plant response rating, Corn (corn; [9]): 90
Plant response rating, Kochia (kochia; [7]): 100
Plant response rating (0 = no effect, 100 = complete control), Kochia (kochia; 125 g ai/ha, preemergence): 100
Plant response rating, Kochia (kochia; [8]): 100
Plant response rating, Kochia (kochia; [9]): 100
Plant response rating, Morningglory (morningglory; [7]): 15
Plant response rating (0 = no effect, 100 = complete control), Morningglory (morningglory; 125 g ai/ha, preemergence): 80
Plant response rating, Morningglory (morningglory; [8]): 100
Plant response rating, Morningglory (morningglory; [9]): 100
Plant response rating, Velvetleaf (velvetleaf [2]; [7]): 95
Plant response rating (0 = no effect, 100 = complete control), Velvetleaf (velvetleaf [2]; 125 g ai/ha, preemergence): 100
Plant response rating, Velvetleaf (velvetleaf [2]; [8]): 100
Plant response rating, Velvetleaf (velvetleaf [2]; [9]): 100
Sedge, Umbrella plant response rating ([3]; 62 g ai/ha, scale 0 to 100): 70
Sedge, Umbrella plant response rating [3, 10]: 80
Sedge, Umbrella plant response rating [3, 11]: 85
Plant response rating, Sedge, Umbrella [3, 12]: 85

C#CCn1nc(C(C)(C)C)cc1C(=O)Nc1cccc(C(=O)NCC)c1 [Compound 50]
Plant response rating, Velvetleaf (velvetleaf [1]; Postemergence, 500 g ai/ha, visual rating after 13 to 15 days, scale 0 (no effect) to 100 (complete control)): 60
Velvetleaf plant response rating (velvetleaf [1]; Preemergence, 500 g ai/ha, scale 0 to 100): 50
Velvetleaf plant response rating (velvetleaf [1]; postemergence, 125 g ai/ha, visual rating, scale 0 (no effect) to 100 (complete control)): 40
Plant response rating, Velvetleaf (velvetleaf [1]; preemergence, 125 g ai/ha, 0 to 100 scale, 0 is no effect, 100 is complete control): 20
Plant response rating (0 = no effect, 100 = complete control), Surinam Grass (Surinam grass; 62 g ai/ha, preemergence): 0
Plant response rating, Surinam Grass (Surinam grass; [13]): 10
Plant response rating, Surinam Grass (Surinam grass; [14]): 80
Plant response rating, Surinam Grass (Surinam grass; [15]): 50
Surinam Grass plant response rating (Surinam grass; [16]): 85
Plant response rating, Surinam Grass (Surinam grass; [17]): 10
Plant response rating (0 = no effect, 100 = complete control), Corn (corn; 62 g ai/ha, preemergence): 0
Plant response rating, Corn (corn; [13]): 0
Plant response rating, Corn (corn; [14]): 0
Corn plant response rating (corn; [18]): 85
Plant response rating, Corn (corn; [19]): 80
Plant response rating, Corn (corn; [15]): 85
Corn plant response rating (corn; [16]): 10
Plant response rating, Corn (corn; [17]): 20
Plant response rating (0 = no effect, 100 = complete control), Kochia (kochia; 62 g ai/ha, preemergence): 30
Plant response rating, Kochia (kochia; [13]): 85
Plant response rating, Kochia (kochia; [14]): 100
Kochia plant response rating (kochia; [18]): 10
Plant response rating, Kochia (kochia; [19]): 10
Plant response rating, Kochia (kochia; [15]): 10
Kochia plant response rating (kochia; [16]): 100
Plant response rating, Kochia (kochia; [17]): 0
Plant response rating (0 = no effect, 100 = complete control), Morningglory (morningglory; 62 g ai/ha, preemergence): 0
Plant response rating, Morningglory (morningglory; [13]): 0
Plant response rating, Morningglory (morningglory; [14]): 0
Morningglory plant response rating (morningglory; [18]): 10
Plant response rating, Morningglory (morningglory; [15]): 0
Morningglory plant response rating (morningglory; [16]): 0
Plant response rating, Morningglory (morningglory; [17]): 0
Plant response rating (0 = no effect, 100 = complete control), Velvetleaf (velvetleaf [2]; 62 g ai/ha, preemergence): 0
Plant response rating, Velvetleaf (velvetleaf [2]; [13]): 5
Plant response rating, Velvetleaf (velvetleaf [2]; [14]): 5
Velvetleaf plant response rating (velvetleaf [2]; [18]): 100
Plant response rating, Velvetleaf (velvetleaf [2]; [15]): 100
Velvetleaf plant response rating (velvetleaf [2]; [16]): 5
Plant response rating, Velvetleaf (velvetleaf [2]; [17]): 100

CCOC(=O)c1cccc(NC(=O)c2nn(C(C)(C)CC)nc2CC)c1 [Compound 375]
Plant response rating (0 to 100 scale), Velvetleaf (velvetleaf [1]; [4]): 30
Velvetleaf plant response rating (velvetleaf [1]; [5]): 70
Velvetleaf plant response rating (velvetleaf [1]; [6]): 90
Plant response rating, Surinam Grass (Surinam grass; [7]): 55
Plant response rating (0 = no effect, 100 = complete control), Surinam Grass (Surinam grass; 125 g ai/ha, preemergence): 75
Plant response rating, Surinam Grass (Surinam grass; [8]): 80
Plant response rating, Surinam Grass (Surinam grass; [17]): 20
Plant response rating, Corn (corn; [7]): 0
Plant response rating (0 = no effect, 100 = complete control), Corn (corn; 125 g ai/ha, preemergence): 5
Plant response rating, Corn (corn; [8]): 5
Plant response rating, Corn (corn; [15]): 20
Plant response rating, Corn (corn; [20]): 15
Plant response rating, Corn (corn; [17]): 10
Plant response rating, Kochia (kochia; [7]): 80
Plant response rating (0 = no effect, 100 = complete control), Kochia (kochia; 125 g ai/ha, preemergence): 100
Plant response rating, Kochia (kochia; [8]): 100
Plant response rating, Kochia (kochia; [15]): 90
Plant response rating, Kochia (kochia; [20]): 85
Plant response rating, Kochia (kochia; [17]): 70
Plant response rating, Morningglory (morningglory; [7]): 0
Plant response rating (0 = no effect, 100 = complete control), Morningglory (morningglory; 125 g ai/ha, preemergence): 0
Plant response rating, Morningglory (morningglory; [8]): 5
Plant response rating, Morningglory (morningglory; [17]): 10
Plant response rating, Velvetleaf (velvetleaf [2]; [7]): 0
Plant response rating (0 = no effect, 100 = complete control), Velvetleaf (velvetleaf [2]; 125 g ai/ha, preemergence): 30
Plant response rating, Velvetleaf (velvetleaf [2]; [8]): 80
Plant response rating, Velvetleaf (velvetleaf [2]; [20]): 85
Plant response rating, Velvetleaf (velvetleaf [2]; [17]): 60
